Active and inactive are the calls of the source. Cut-off read from the data, not from the text of the source, for most assays here: actives have a measured EC50 and inactives only a lower limit.
Assays:
[1] = viability of PTEN-deleted HCT116 cells – cell-based, HCT116 PTEN knockout, dose response (AID 1047); format: functional;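 note: HCT116 colon tumor cells with PTEN knocked out; cells exposed to compound for 60 hours before readout; potency for loss of cell viability measured by luminescence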
[2] = A Cell Based Secondary Assay To Explore Cytotoxicity of Compounds that Sensitize Mycobacterium Tuberculosis to Beta-Lactam Antibiotics.; format: functional
[3] = viability of HCT116 lacking mutant beta-catenin – cell-based, human colon tumor, dose response (AID 1045); format: functional;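 note: HCT116 colon tumor cells with beta catenin knocked out; cells exposed to compound for 60 hours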
[4] = biological target: T1, Luciferin 4-monooxygenase (Photinus pyralis, UniProt P08659); experiment: Counter Screen for Luciferase-based Assay Positives. [Related pubchem assays: 620, 618, 411 ]
BJ [5] = experiment: cells; format: functional, cell-based; settings: Homo sapiens
[6] = DRD fibroblast viability loss – cell-based, non-viral oncogenic, luminescence, dose response (AID 1934); format: functional; settings: Homo sapiens
BJ [7] = experiment: growth inhibition of engineered Ras-driven BJ cells – cell-based, alamar blue fluorescence, cherrypicked samples, dose response (AID 2631); format: functional; settings: Homo sapiens;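 note: confirmatory dose-response assay in RAS-dependent BJ fibroblasts engineered with TERT, LT and ST, with cytotoxicity read by fluorescence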
HT-1080 = experiment: HT1080 cell viability loss – fluorescence readout (AID 620); format: functional, cell-based; settings: Homo sapiens
[8] = Luminescence Cell-Based Dose Response HTS to Identify Inhibitors of 5'UTR Stem-Loop Driven Prion Protein mRNA Translation in H4 Neuroglioblastoma Cells. [Related pubchem assays: 1827 (Project Summary), 1813 (Primary HTS)]; format: functional
HEK293 = experiment: EBV LMP1 TES2 canonical NF-kB signalling blockers – cell-based, HEK293, luciferase, cherry-pick, dose response (AID 588343); format: functional; settings: Homo sapiens
[9] = alpha-synuclein stem-loop luciferase translation blockers – H4 neuroglioma cells, luminescence, confirmation (AID 1988); format: functional, cell-based
INS1 = experiment: INS-1E survival protection against cytokine death – cell-based, luminescence, retest, dose response (AID 449756); format: functional; settings: Rattus norvegicus;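 note: cell death triggered by IL-1 beta plus TNF-alpha plus IFN-gamma mixture; protective hits raise ATP signal compared with cytokine alone wells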
BJ [10] = experiment: BJ-TERT-LT-ST fibroblast viability loss – cell-based, RAS-independent, luminescence, dose response (AID 1935); format: functional; settings: Homo sapiens;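 note: BJ fibroblasts immortalized with TERT plus LT and ST oncogenes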
BJ [11] = experiment: BJ-TERT fibroblast viability loss – cell-based, RAS-independent, luminescence, dose response (AID 1933); format: functional; settings: Homo sapiens
[12] = luciferase reporter signal suppression in cells – H4 neuroglioma cells, luminescence, dose response (AID 1990); format: functional, cell-based
Leucine aminopeptidase = biological target: T2, Leucine aminopeptidase (Plasmodium falciparum 3D7, UniProt Q8IL11); experiment: P. falciparum M17LAP inhibitors, primary screen, biochemical, fluorogenic H-Leu-NHMec substrate, 1536-well (AID 1619); format: functional
T2 sequence (Q8IL11 whole entry): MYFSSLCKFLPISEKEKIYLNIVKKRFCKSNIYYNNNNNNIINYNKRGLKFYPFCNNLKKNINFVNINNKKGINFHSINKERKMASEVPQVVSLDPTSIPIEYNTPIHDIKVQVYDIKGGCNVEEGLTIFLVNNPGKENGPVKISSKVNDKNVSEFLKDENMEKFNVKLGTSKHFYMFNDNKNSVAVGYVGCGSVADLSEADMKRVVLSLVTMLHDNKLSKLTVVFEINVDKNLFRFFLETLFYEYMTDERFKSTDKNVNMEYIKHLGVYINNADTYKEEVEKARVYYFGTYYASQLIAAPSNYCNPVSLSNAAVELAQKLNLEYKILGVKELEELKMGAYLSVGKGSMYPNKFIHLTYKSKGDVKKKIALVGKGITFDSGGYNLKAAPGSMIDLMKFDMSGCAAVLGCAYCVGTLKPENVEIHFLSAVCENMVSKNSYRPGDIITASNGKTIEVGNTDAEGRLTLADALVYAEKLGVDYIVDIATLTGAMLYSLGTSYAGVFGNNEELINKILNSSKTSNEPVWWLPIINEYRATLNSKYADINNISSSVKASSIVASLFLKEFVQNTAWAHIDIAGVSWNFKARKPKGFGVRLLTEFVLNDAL

Escherichia coli = experiment: microbe, parasite or virus in culture
[13] = HIV-1 Vif–A3G interaction blockers – biochemical, TR-FRET, GST-Vif 1-94, biotin-A3G peptide, dose response retest, primary screen (AID 1117319); format: functional;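 note: TR-FRET signal of purified GST-Vif binding a biotinylated A3G peptide; inhibitors lower the FRET signal by blocking Vif and A3G binding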
[14] = HEK-293T cell viability reduction – luminescence, B-cell screen hits, cytotoxicity control for BCR NF-kB inhibitor project, dose response (AID 489021); format: functional, cell-based;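 note: HEK-293T cells carrying an NF-kB luciferase reporter; cells exposed to compound for about 14 hours before viability readout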
[15] = biological target: T1, Luciferin 4-monooxygenase; experiment: inhibition of purified Photinus pyralis luciferase – biochemical, luminescence, dose response (AID 1891)
[16] = Luminescence Cell-Based Dose Confirmation HTS to Identify Inhibitors of Platelet Dense Granule Release. [Related pubchem assays: 1663 (Primary HTS), 1678 (Summary of Project)]; format: functional
[17] = biological target: DNA dC->dU-editing enzyme APOBEC-3G (Homo sapiens, UniProt Q9HC16); experiment: Dose Response confirmation of small molecule APOBEC3G DNA Deaminase Inhibitors via a fluorescence-based single-stranded DNA deaminase assay. [Related pubchem assays (depositor defined):AID493012, AID493028]; format: functional
[18] = biological target: DNA dC->dU-editing enzyme APOBEC-3A (Homo sapiens, UniProt P31941); experiment: A3A deaminase inhibition for selectivity – biochemical, dose response (AID 504722); format: functional
NS3 = NS3 (Hepatitis C virus, UniProt A3EZJ3); experiment: PubChem AID 2173; design: species or system Hepacivirus hominis
[19] = biological target: Heat shock protein HSP 90-alpha (Homo sapiens, UniProt P07900); format: functional, organism-based
[20] = fluconazole-exposed Candida albicans growth modulators – fluorescence, retest, confirmation (AID 2467); format: functional, cell-based
[21] = test system: Streptococcus sp. 'group A'; experiment: Streptococcus pyogenes SK(-)GAS viability under kanamycin – luminescence, BacTiterGlo, confirmation, counter-screen for streptokinase expression inhibitor project, dose response (AID 1900); format: functional, organism-based
Streptokinase A = biological target: T3, Streptokinase A (Streptococcus pyogenes serotype M1, UniProt P10520); experiment: viability-normalized secreted streptokinase activity reduction – plasminogen activation absorbance, OD405, dose response (AID 1914); format: functional, Streptococcus pyogenes M1 GAS;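 note: secreted streptokinase activity via plasminogen activation per viability signal from cell pellet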
T3 sequence (P10520 whole entry): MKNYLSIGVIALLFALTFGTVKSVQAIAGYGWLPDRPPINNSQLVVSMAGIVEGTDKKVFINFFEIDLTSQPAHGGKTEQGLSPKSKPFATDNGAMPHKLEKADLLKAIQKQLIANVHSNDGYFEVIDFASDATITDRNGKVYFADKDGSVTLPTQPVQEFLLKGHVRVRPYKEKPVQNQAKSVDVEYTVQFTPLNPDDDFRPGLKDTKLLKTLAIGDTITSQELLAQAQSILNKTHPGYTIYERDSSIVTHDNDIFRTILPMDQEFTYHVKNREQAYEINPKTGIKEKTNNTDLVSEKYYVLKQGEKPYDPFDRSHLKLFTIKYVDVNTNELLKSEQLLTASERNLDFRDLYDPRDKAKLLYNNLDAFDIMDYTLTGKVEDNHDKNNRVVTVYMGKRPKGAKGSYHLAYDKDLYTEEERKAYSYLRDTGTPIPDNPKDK

Streptococcus = experiment: GAS UMAA2166 growth inhibition – luminescence, BacTiterGlo, counter-screen for streptokinase expression inhibitor project, dose response (AID 1915); format: functional, organism-based;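 note: potency for reduction of bacterial viability or growth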
[22] = NIH-3T3 fibroblast cytotoxicity, dose response, cytotoxicity control, cell-based, fluorescence, Alamar Blue, secondary assay (AID 2327); format: functional;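 note: NIH-3T3 mouse fibroblasts cultured with fluconazole at 8 µg/mL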
[23] = HEK-293T viability loss after treatment – luminescence, T-cell screen hits, cytotoxicity control for TCR NF-kB inhibitor project, dose response (AID 489026); format: functional, cell-based;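 note: cells exposed to compound about 14 hours before the viability readout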
[24] = reduction of Shn3 3'UTR-driven luciferase in osteoblasts – cell-based, Clone20 osteoblasts, firefly luciferase, cherry-picked, dose response (AID 624132); format: functional;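 note: firefly luciferase luminescence from reporter carrying the Shn3 3'UTR in osteoblasts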
[25] = loss of viability in HepG2 cells – cell-based, CellTiter-Glo, cherry-picked, cytotoxicity control for Shn3 inhibitor project, dose response (AID 624134); format: functional

T1 sequence (P08659 whole entry): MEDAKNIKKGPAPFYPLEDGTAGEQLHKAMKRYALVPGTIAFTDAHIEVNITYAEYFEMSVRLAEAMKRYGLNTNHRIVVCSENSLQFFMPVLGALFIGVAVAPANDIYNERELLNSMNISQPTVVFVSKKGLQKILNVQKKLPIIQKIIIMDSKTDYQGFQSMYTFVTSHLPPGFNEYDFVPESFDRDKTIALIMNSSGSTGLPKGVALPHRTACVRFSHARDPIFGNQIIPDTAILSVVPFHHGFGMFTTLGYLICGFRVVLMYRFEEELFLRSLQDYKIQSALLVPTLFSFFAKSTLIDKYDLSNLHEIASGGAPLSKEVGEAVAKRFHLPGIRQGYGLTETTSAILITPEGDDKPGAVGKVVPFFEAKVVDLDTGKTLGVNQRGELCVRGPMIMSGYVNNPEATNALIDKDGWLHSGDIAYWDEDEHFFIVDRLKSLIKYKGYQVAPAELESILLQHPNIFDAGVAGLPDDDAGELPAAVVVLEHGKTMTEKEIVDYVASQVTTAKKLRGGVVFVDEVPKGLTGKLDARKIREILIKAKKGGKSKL
Sequence of NS3 (A3EZJ3 whole entry): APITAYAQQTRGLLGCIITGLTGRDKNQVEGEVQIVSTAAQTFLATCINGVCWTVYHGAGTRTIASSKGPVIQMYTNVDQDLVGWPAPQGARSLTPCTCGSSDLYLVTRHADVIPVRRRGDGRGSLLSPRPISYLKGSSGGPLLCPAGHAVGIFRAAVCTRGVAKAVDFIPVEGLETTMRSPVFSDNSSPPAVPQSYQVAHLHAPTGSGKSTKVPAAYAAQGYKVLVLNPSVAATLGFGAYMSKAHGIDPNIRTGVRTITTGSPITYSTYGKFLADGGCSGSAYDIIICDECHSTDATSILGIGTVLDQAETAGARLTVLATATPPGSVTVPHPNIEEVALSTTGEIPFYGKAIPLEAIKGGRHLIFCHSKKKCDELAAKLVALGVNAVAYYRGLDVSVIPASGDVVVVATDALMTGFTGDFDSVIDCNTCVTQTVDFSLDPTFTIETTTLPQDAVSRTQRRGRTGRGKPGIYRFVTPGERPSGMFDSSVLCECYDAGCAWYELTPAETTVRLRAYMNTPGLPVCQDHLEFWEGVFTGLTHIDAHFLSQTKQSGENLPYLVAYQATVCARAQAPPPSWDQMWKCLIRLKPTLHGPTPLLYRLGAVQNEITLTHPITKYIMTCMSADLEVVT
Sequence of DNA dC->dU-editing enzyme APOBEC-3A (P31941 whole entry): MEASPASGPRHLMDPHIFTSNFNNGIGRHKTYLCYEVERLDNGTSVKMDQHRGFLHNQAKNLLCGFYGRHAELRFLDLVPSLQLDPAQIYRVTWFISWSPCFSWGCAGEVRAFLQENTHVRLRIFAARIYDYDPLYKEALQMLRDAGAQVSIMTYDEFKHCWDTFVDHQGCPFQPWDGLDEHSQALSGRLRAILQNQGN
Sequence of DNA dC->dU-editing enzyme APOBEC-3G (Q9HC16 whole entry): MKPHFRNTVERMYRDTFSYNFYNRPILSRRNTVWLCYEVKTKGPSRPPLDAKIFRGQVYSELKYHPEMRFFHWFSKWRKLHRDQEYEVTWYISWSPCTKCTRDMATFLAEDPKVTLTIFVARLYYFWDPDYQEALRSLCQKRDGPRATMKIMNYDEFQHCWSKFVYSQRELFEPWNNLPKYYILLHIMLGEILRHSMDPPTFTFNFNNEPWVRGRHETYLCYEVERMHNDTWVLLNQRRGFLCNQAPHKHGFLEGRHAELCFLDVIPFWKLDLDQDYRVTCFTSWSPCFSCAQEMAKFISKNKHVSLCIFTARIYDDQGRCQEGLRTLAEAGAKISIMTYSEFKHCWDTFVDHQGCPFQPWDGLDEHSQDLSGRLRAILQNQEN

With `C/C(=N/NC(=O)c1ccc(Cl)s1)c1ccc(NC(=O)COc2ccc(Cl)cc2)cc1` as the compound, how does the EC50 [1] read?
The EC50 was 24 µM (active).

And the CC50 [2]?
The CC50 was > 40 µM (active).

What about the EC50 [3] of the same compound?
Its EC50 is 22.2 µM (active).

What does the source list for `CCCCC/N=C\c1c(C)nn(-c2nc3ccccc3s2)c1O`?
EC50 [4]: 1.93 µM (active); EC50 (BJ [5]): 2.32 µM (active); EC50 [6]: 2.01 µM (active); EC50 (BJ [7]): > 133 µM (inactive); EC50 (HT-1080): > 50 µM (not active); EC50 [8]: 6.84 µM (active); AC50 (HEK293): 3.89 µM (active); EC50 [9]: 7.25 µM (active); AC50 (INS1): 2.69 µM (active); EC50 (BJ [10]): 4.84 µM (active); EC50 (BJ [11]): 1.26 µM (active); EC50 [12]: 9.33 µM (inconclusive)

Which results are given for `CCc1ccc(-c2cc(C(=O)Nc3ccc(S(=O)(=O)NC(C)=O)cc3)c3ccccc3n2)cc1`?
IC50 (Leucine aminopeptidase): 7.8 µM (active); AC50 (Escherichia coli): 38.6 µM (active); IC50 [13]: > 100 µM (active)

With `Cc1nc2cc(-c3cccc(F)c3)nn2c(C)c1CCC(=O)NC(C)CCc1ccco1` (centres undefined) as the compound, how does the EC50 [4] read?
The EC50 was 0.27 µM (active).

And the IC50 [14]?
The IC50 was > 80 µM (inactive).

What about the EC50 (HT-1080) of the same compound?
Its EC50 is > 50 µM (not active).

And the EC50 [9]?
The EC50 was 5.87 µM (active).

And the EC50 [12]?
Its EC50 is 2.36 µM (active).

For `COc1cccc(C(=O)/C=C/Nc2cccc(O)c2)c1`, which EC50 [4] is on record?
The EC50 was 0.56 µM (active).

What about the EC50 [15] of the same compound?
Its EC50 is 1.38 µM (active).

What about the EC50 (HT-1080) of the same compound?
Its EC50 is > 50 µM (not active).

And the EC50 [16]?
Its EC50 is 2.07 µM (active).

For `O=C(Nc1nc2nc(-c3ccccc3)cc(-c3ccccc3)n2n1)c1ccco1`, which IC50 [14] is on record?
The IC50 was > 80 µM (inactive).

Which results are given for `COc1ccccc1/C=C/C=N/n1c(S)nnc1-c1ccncc1`?
IC50 [17]: 2.21 µM (active); IC50 [18]: > 100 µM (inactive)

Which IC50 (NS3) does the source give for `O=C1OC(c2ccco2)=N/C1=C\c1ccc(-c2cccc(C(F)(F)F)c2)o1` here?
Its IC50 is 22.1 µM (not active).

With `Cc1ccc(/C=C/C(=O)c2ccccc(=O)c2O)c(C)c1` as the compound, how does the AC50 [19] read?
The AC50 was 2.05 µM (active).

And the IC50 (NS3)?
Its IC50 is 2.9 µM (active).

What about the EC50 [20] of the same compound?
Its EC50 is 1.46 µM (active).

What about the EC50 [21] of the same compound?
Its EC50 is 5.22 µM (active).

What about the EC50 (Streptokinase A) of the same compound?
Its EC50 is > 150 µM (not active).

And the EC50 (Streptococcus)?
The EC50 was 7.6 µM (active).

And the EC50 [22]?
The EC50 was > 160 µM (inactive).

For `Cc1ccc(-c2nc(-c3ccccn3)no2)cc1`, which EC50 [4] is on record?
The EC50 was 0.81 µM (active).

And the EC50 (BJ [5])?
The EC50 was 5.39 µM (active).

What about the EC50 [6] of the same compound?
The EC50 was 5.41 µM (active).

What about the EC50 [15] of the same compound?
The EC50 was 0.593 µM (active).

And the IC50 [23]?
Its IC50 is > 80 µM (inactive).

What about the EC50 (HT-1080) of the same compound?
Its EC50 is > 50 µM (not active).

And the EC50 (BJ [10])?
Its EC50 is 17.4 µM (active).

What about the AC50 [24] of the same compound?
The AC50 was 1.96 µM (active).

And the AC50 [25]?
The AC50 was 8.99 µM (active).

What about the EC50 [16] of the same compound?
Its EC50 is 2.52 µM (active).

And the EC50 (BJ [11])?
Its EC50 is 7.04 µM (active).
